One assay addresses T1, human c-Kit (Homo sapiens, UniProt P10721).
T1 construct: human c-Kit (Thr544-Val976); purchased Cell Signaling Technologies; host or cells: baculovirus expression system
The assay can be described thus: c-Kit kinase assay (HTScan Receptor Kinase Assay Kit, DELFIA). It counts as biochemical. The conditions noted are these: 200 μM ATP. The method, then: (f) An In Vitro Assay which Determines the Ability of a Test Compound to Inhibit c-Kit Kinase.
The ability of compounds to inhibit c-Kit tyrosine kinase activity was assayed using HTScan™ Receptor Kinase Assay Kits (Cell Signaling Technologies, Danvers, Mass.). c-Kit tyrosine kinase is obtained in partially purified form from GST-kinase fusion protein which is produced using a baculovirus expression system from a construct expressing human c-Kit (Thr544-Val976) with an amino-terminal GST tag. The protein was purified by one-step affinity chromatography using glutathione-agarose. An anti-phosphotyrosine monoclonal antibody, P-Tyr-100, is used to detect phosphorylation of biotinylated substrate peptide KDR (Tyr996). Enzymatic activity was tested in 60 mM HEPES, 5 mM MgCl2 5 mM MnCl2 200 μM ATP, 1.25 mM DTT, 3 μM Na3VO4, 1.5 mM peptide, and 50 ng c-Kit. Bound antibody was detected using the DELFIA system (PerkinElmer, Wellesley, Mass.) consisting of DELFIA® Europium-labeled Anti-mouse IgG (PerkinElmer, #AD0124), DELFIA® Enhancement Solution (PerkinElmer, #1244-105), and a DELFIA® Streptavidin coated, 96-well Plate (PerkinElmer, AAAND-0005). Fluorescence was measured on a WALLAC Victor 2 plate reader and reported as relative fluorescence units (RFU). Data were plotted using GraphPad Prism (v4.0a) and IC50's were calculated using a sigmoidal dose response curve fitting algorithm.
Test compounds were dissolved in dimethylsulphoxide (DMSO) to give a 20 mM working stock concentration. Each assay was set up as follows: 100 μl of 10 mM ATP is added to 1.25 ml 6 mM substrate peptide. The mixture was diluted with dH20 to 2.5 ml to make 2×ATP/substrate cocktail ([ATP]=[…], [substrate]=3 mM). The enzyme was immediately transferred from −80° C. to ice. The enzyme was allowed to thaw on ice. The mixture was microcentrifuged briefly at 4° C. to bring liquid to the bottom of the vial and returned immediately to ice. 10 μl of DTT (1.25 mM) was added to 2.5 ml of 4× HTScan™ Tyrosine Kinase Buffer (240 mM HEPES pH 7.5, 20 mM MgCl2, 20 mM MnCl, 12 mM NaVO3) to make DTT/Kinase buffer. 1.25 ml of DTT/Kinase buffer was transferred to enzyme tube to make a 4× reaction cocktail ([enzyme]=4 ng/μL in 4× reaction cocktail). 12.5 μl of the 4× reaction cocktail was incubated with 12.5 μl/well of prediluted compound of interest (usually around 10 μM) for 5 minutes at room temperature. 25 μl of 2×ATP/substrate cocktail is added to 25 μl/well preincubated reaction cocktail/compound. The reaction plate was incubated at room temperature for 30 minutes. 50 μl/well Stop Buffer (50 mM EDTA, pH 8) was added to stop the reaction. […] 615 nm fluorescence emission is detected using an appropriate Time-Resolved Plate Reader.

Another assay addresses T2, human PDGFR-beta (Homo sapiens, UniProt P09619).
T2 construct: fragment (amino acids 558-1106) amino-terminally fused to 6-histidine; 6xHis (N); made in house
Kind of assay: PDGFR-beta radioisotope kinase assay. The conditions noted are these: 100 μM ATP; for IC50: read-out: PDGFRb IC50. It counts as biochemical. The method, then: (a) An In Vitro Assay which-Determines the Ability of a Test Compound to Inhibit a Receptor Tyrosine Kinase.
The ability of compounds to inhibit receptor kinase (VEGFR2 and PDGFR-beta) activity was assayed using standard radioisotope assay for kinase. […] The proteins were purified using Ni2+/NTA agarose affinity column to purity
For PDGFR-beta assay, p33 ATP tracers were incubated with purified recombinant PDGFR-beta kinase to monitor the enzyme activity. In this assay, reactions were carried out in the presence of 0.4 mg/ml PDGFR-beta kinase and 200 nM of Abl peptide substrate ([…]). The reaction was carried out at 30° C. for 120 minutes in a final assay condition contained 20 mM Tris-HCl, pH 7.5, 100 mM NaCl, 0.05 mM EDTA, 0.05% NP-40, 1 mM DTT 50% glycerol and 100 μM ATP. An equal volume of 25% TCA was added to stop the reaction and precipitate the labeled peptides. Precipitated proteins were trapped onto glass fiber B filterplates and excess unlabeled p33 ATP was washed off. The plates were allowed to air-dry prior to the addition of 30 uL/well of Packard Microscint 20. The amount of incorporated isotope was measured using a Perkin Elmer TopCount plate reader. Different concentrations of compounds were added to reaction to assess the activity of compounds to inhibit PDGF-beta kinase. IC50 was calculated using Prism software with sigmoidal dose-response curve fitting.

Some results are limits rather than exact numbers.

T1 sequence (P10721 544-976): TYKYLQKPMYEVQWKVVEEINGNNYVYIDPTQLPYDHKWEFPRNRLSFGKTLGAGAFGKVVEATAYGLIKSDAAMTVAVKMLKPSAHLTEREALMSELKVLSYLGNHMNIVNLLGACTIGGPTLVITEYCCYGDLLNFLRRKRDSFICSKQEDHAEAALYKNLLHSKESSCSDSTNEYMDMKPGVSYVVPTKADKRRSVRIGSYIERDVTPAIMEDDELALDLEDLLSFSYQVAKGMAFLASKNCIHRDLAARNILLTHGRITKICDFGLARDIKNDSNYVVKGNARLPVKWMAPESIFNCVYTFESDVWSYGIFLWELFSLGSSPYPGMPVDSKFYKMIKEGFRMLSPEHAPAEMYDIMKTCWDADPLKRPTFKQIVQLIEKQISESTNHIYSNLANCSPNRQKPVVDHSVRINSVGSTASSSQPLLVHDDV
T2 sequence (P09619 558-1106): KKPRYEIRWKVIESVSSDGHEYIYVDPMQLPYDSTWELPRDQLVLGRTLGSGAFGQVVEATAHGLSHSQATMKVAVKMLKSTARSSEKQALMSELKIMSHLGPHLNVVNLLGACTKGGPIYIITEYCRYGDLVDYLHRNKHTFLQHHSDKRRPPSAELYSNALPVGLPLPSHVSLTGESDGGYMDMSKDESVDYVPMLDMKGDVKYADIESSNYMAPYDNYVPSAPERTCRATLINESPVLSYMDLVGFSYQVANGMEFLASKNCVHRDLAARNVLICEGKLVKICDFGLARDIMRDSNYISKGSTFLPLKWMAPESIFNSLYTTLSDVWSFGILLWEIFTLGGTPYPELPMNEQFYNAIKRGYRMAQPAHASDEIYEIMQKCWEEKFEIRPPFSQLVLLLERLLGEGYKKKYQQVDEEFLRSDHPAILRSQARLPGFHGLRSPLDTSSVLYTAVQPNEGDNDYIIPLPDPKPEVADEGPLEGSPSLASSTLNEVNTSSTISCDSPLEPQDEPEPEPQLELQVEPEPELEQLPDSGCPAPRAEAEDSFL

For `COc1cc2c(Oc3ccc4[nH]c(C)cc4c3F)ncnc2cc1OCCCCCCC(=O)NO` [Compound 11, 7-(4-(4-fluoro-2-methyl-1H-indol-5-yloxy)-6-methoxyquinazolin-7-yloxy)-N-hydroxyheptanamide], the IC50 (commonly the midpoint of a concentration-inhibition curve) at human c-Kit was less than 100 nM. For the same compound, the “PDGFRb IC50” value at human PDGFR-beta is given as “Inactive”.

Consider `COc1cc2c(Nc3ccc4[nH]c(C)cc4c3F)ncnc2cc1OCCCCCC(=O)NO` [Compound 13, 6-(4-(4-fluoro-2-methyl-1H-indol-5-ylamino)-6-methoxyquinazolin-7-yloxy)-N-hydroxyhexanamide], for which the IC50 on human c-Kit was 100 to 1000 nM; on human PDGFR-beta, 1000 to 10000 nM.

Take `COc1cc2c(Nc3ccc4[nH]c(C)cc4c3F)ncnc2cc1OCCCCCCC(=O)NO` [Compound 14, 7-(4-(4-fluoro-2-methyl-1H-indol-5-ylamino)-6-methoxy-quinazolin-7-yloxy)-N-hydroxyheptanamide]: the figures for the IC50 against human c-Kit and on human PDGFR-beta were 100 to 1000 nM and greater than 10000 nM, respectively.

As to `Cc1cc2c(F)c(Nc3ncnc4cc(OCCCN5CCCC5)c(OCCCCCCC(=O)NO)cc34)ccc2[nH]1` [Compound 20, 7-(4-(4-Fluoro-2-methyl-1H-indol-5-ylamino)-7-(3-(pyrrolidin-1-yl)propoxy)quinazolin-6-yloxy)-N-hydroxyheptanamide], the values for the IC50 on human c-Kit and on human PDGFR-beta were 100 to 1000 nM and greater than 10000 nM, respectively.

(Values after patent publication US20090076044A1, “VEGFR INHIBITORS CONTAINING A ZINC BINDING MOIETY” (priority 2007, published 2009).)
